ChEMBL document CHEMBL1130767, “Discovery of a new cyclooxygenase-2 lead compound through 3-D database searching and combinatorial chemistry” (Bioorg Med Chem Lett, 1998)

Key:
[1] = molecular target: T1, Prostaglandin G/H synthase 2 (Homo sapiens, UniProt P35354); experiment: Inhibitory activity was evaluated against human Prostaglandin G/H synthase 2 was determined
T1 sequence (P35354 whole entry): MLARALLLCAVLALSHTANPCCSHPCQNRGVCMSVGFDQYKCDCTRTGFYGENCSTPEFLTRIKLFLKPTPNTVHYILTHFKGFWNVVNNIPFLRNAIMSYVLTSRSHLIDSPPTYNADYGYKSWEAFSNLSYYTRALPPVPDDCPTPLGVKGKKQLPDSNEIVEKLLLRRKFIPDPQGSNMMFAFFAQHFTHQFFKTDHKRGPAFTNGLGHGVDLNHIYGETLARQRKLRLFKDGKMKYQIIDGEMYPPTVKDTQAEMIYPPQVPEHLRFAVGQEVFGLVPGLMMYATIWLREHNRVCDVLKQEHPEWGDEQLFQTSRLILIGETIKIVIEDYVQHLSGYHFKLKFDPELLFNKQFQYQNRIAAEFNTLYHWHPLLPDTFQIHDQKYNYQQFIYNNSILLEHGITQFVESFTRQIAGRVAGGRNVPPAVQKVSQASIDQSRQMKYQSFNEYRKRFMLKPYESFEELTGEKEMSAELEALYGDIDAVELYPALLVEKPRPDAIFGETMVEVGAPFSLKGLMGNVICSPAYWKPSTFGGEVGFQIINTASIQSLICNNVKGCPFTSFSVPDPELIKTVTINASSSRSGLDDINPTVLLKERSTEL

[2] = molecular target: T2, Prostaglandin G/H synthase 1 (Homo sapiens, UniProt P23219); experiment: Inhibitory activity was evaluated against human Prostaglandin G/H synthase 1 was determined
[3] = molecular target: T3, Prostaglandin G/H synthase 2 (Homo sapiens) (UniProt P35354); experiment: Compound was evaluated for percent inhibition of Prostaglandin G/H synthase 2 at the concentration of 0.3 uM
T3 sequence (whole entry): T1 sequence (P35354 whole entry)

[4] = molecular target: T2, Prostaglandin G/H synthase 1; experiment: Compound was evaluated for percent inhibition of Prostaglandin G/H synthase 1 at the concentration of 0.3 uM
[5] = molecular target: T2, Prostaglandin G/H synthase 1; experiment: Compound was evaluated for the inhibition of Prostaglandin G/H synthase 1 at the concentration of 3 uM
[6] = molecular target: T3, Prostaglandin G/H synthase 2 (Homo sapiens); experiment: Compound was evaluated for percent inhibition of Prostaglandin G/H synthase 2 at the concentration of 10 uM
[7] = molecular target: T2, Prostaglandin G/H synthase 1; experiment: Compound was evaluated for percent inhibition of Prostaglandin G/H synthase 1 at the concentration of 10 uM

T2 sequence (P23219 whole entry): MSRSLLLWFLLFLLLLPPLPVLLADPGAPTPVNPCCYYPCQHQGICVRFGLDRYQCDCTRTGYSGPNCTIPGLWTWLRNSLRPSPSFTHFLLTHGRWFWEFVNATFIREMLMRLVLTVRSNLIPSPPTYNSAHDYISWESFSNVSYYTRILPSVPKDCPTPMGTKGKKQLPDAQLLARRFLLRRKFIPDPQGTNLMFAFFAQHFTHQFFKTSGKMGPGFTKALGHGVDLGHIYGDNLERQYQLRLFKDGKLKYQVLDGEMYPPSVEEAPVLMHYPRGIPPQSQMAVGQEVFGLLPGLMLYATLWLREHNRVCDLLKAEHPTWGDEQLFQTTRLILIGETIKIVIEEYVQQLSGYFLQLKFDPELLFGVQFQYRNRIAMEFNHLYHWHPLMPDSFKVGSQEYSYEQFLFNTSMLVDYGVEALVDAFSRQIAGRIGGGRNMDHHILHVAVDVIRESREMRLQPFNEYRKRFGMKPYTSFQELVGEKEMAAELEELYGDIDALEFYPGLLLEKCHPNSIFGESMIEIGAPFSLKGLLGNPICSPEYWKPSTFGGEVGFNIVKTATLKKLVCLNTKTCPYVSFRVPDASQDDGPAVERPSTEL

## CC(O)CN1c2ccccc2Sc2ccccc21 (centres undefined)
[1]
  IC50: 5000 nM
[2]
  IC50: 1000 nM

## O=C(CCC1CCCCC1)NCCCN1c2ccccc2Sc2ccccc21
[3]
  inhibition: 15%

## CCC(=O)NCCCN1c2ccccc2Sc2ccccc21
[3]
  inhibition: 18%

## CC(C)(COc1ccc(Br)cc1)C(=O)NCCCN1c2ccccc2Sc2ccccc21
[4]
  inhibition: 12%
[1]
  IC50: 21000 nM
[3]
  inhibition: 34%
[5]
  inhibition: 19%

## O=C(COc1ccc(Br)cc1)NCCCN1c2ccccc2Sc2ccccc21
[3]
  inhibition: 15%

## O=C(O)CCN1c2ccccc2Sc2ccccc21
[6]
  inhibition: 14%
[7]
  inhibition: 25%

## OCCN1c2ccccc2Sc2ccccc21
[6]
  inhibition: 14%
[7]
  inhibition: 12%

## CC(C)(Oc1ccc(Cl)cc1)C(=O)NCCCN1c2ccccc2Sc2ccccc21
[4]
  inhibition: 13%
[1]
  IC50: 1300 nM
[3]
  inhibition: 44%
[5]
  inhibition: 17%

## CC(S)CN1c2ccccc2Sc2ccccc21 (centres undefined)
[1]
  IC50: 4000 nM
[2]
  IC50: 500 nM
